{"source": "paper PMC5857911", "about": "“Inositol pyrophosphate synthesis by diphosphoinositol pentakisphosphate kinase-1 is regulated by phosphatidylinositol(4,5)bisphosphate” (Bioscience Reports, 2018)", "format_in_all_cases": "biochemical", "key": {"PPIP5K1 [1]": {"biological_target": "T1, PPIP5K1 (Homo sapiens, UniProt Q6PFW1)", "T1 construct": "full-length human PPIP5K1", "T1 sequence (Q6PFW1 1-1433)": "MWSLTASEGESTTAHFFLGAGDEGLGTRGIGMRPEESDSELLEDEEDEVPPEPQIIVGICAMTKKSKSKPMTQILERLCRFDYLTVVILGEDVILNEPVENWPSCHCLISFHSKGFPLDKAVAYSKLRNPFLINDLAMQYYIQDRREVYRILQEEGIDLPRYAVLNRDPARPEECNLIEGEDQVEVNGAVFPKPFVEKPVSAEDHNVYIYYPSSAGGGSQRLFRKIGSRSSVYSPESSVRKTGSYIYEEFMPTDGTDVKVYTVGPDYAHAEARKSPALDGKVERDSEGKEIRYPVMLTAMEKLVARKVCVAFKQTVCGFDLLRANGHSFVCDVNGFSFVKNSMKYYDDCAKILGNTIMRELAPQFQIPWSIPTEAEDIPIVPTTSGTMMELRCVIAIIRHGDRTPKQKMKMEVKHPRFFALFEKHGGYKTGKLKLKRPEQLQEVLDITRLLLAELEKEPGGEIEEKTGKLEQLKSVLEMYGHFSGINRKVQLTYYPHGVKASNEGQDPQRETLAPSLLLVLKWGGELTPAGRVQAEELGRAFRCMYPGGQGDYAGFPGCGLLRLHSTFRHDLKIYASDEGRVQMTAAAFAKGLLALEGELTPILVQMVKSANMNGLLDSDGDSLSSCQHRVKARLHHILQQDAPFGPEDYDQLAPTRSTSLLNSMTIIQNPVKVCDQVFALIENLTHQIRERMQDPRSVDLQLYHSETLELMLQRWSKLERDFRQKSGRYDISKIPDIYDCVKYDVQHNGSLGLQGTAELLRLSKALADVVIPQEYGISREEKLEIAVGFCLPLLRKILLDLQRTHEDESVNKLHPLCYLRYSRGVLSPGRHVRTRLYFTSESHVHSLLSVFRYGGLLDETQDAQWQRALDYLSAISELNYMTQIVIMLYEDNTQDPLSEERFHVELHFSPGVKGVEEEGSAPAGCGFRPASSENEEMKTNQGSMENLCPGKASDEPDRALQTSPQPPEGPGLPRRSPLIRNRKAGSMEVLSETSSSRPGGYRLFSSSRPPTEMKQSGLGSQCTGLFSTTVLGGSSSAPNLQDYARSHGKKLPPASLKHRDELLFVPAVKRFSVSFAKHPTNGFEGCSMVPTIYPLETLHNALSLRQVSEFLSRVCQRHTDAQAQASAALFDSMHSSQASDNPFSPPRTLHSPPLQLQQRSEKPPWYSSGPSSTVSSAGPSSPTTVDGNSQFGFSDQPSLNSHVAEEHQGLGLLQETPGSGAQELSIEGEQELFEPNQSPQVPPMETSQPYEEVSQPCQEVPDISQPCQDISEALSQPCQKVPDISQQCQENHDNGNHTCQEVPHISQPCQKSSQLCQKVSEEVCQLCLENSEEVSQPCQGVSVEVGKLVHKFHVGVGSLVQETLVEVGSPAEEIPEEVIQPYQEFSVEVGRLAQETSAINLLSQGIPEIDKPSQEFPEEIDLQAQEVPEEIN", "assay": "InsP8 phosphatase assay with [3H]InsP8, HPLC, dose-response"}, "PPIP5K1 [2]": {"biological_target": "T1, PPIP5K1", "assay": "kinase assay of purified recombinant enzyme with […]-[3H]InsP7, HPLC, first-order conditions"}, "PPIP5K1 [3]": {"biological_target": "T2, PPIP5K1 (Homo sapiens, UniProt Q6PFW1, R399A)", "T2 construct": "full-length human PPIP5K1", "T2 sequence (Q6PFW1 1-1433 R399A)": "T1 sequence (Q6PFW1 1-1433) with R399A", "assay": "kinase assay of purified phosphatase-compromised mutant, […] h, HPLC"}, "PPIP5K1 [4]": {"biological_target": "T1, PPIP5K1", "assay": "phosphatase assay of purified recombinant enzyme, […] InsP8 with [3H]InsP8, HPLC"}}, "note": "Changes are numbered by the printed parent chain."}
{"smiles": "CCCCCCCC(=O)OC[C@H](COP(=O)(O)O[C@H]1[C@H](O)[C@@H](OP(=O)(O)O)[C@H](OP(=O)(O)O)[C@@H](OP(=O)(O)O)[C@H]1O)OC(=O)CCCCCCC", "note": "[C8-PtdIns(3,4,5)P3]", "values": [{"measurement": "IC50", "setting": "PPIP5K1 [1]", "result": "~35", "unit": "µM"}]}
{"smiles": "CCCCCCCC(=O)OC[C@H](COP(=O)(O)O[C@@H]1[C@H](O)[C@H](O)[C@@H](OP(=O)(O)O)[C@H](OP(=O)(O)O)[C@H]1O)OC(=O)CCCCCCC", "note": "[C8-PtdIns(4,5)P2]", "values": [{"measurement": "IC50", "setting": "PPIP5K1 [1]", "result": "~40", "unit": "µM"}]}
{"smiles": "O=P(O)(O)O[C@H]1[C@@H](OP(=O)(O)O)[C@H](OP(=O)(O)O)[C@@H](OP(=O)(O)OP(=O)(O)O)[C@H](OP(=O)(O)O)[C@H]1OP(=O)(O)O", "note": "[5-InsP7]", "values": [{"measurement": "kinase assay of purified recombinant enzyme with 5-[3H]InsP7, HPLC, first-order", "setting": "PPIP5K1 [2]", "result": 0.07, "unit": "min⁻¹"}, {"measurement": "% / ng protein", "setting": "PPIP5K1 [3]", "result": "6.9 ± 0.01", "unit": "% / ng protein"}]}
{"smiles": "O=P(O)(O)O[C@@H]1[C@@H](OP(=O)(O)O)[C@H](OP(=O)(O)OP(=O)(O)O)[C@@H](OP(=O)(O)O)[C@H](OP(=O)(O)OP(=O)(O)O)[C@@H]1OP(=O)(O)O", "note": "[InsP8]", "values": [{"measurement": "phosphatase assay of purified recombinant enzyme, 1 μM InsP8 with [3H]InsP8, HPL", "setting": "PPIP5K1 [4]", "result": "7 ± 1", "unit": "nmol/mg protein/min"}]}
{"smiles": "CCCCCCCC(=O)OC[C@H](COP(=O)(O)O[C@H]1[C@H](O)[C@@H](O)[C@H](OP(=O)(O)O)[C@@H](OP(=O)(O)O)[C@H]1O)OC(=O)CCCCCCC", "note": "[C8-PtdIns(3,4)P2]", "values": [{"measurement": "IC50", "setting": "PPIP5K1 [1]", "result": "~25", "unit": "µM"}]}
